These are literature values, as cited in patent publication US20110040266A1, “ANTI-INSOMNIA COMPOSITIONS AND METHODS” (priority 2007, published 2011).

For the data set the following is noted: tablet form; administered from 5 hours to 1 hour before waking.

Regarding `Cc1ccc(-c2nc3ccc(C)cn3c2CC(=O)N(C)C)cc1` [zolpidem, N,N,6-trimethyl-2-p-tolyl-imidazo[1,2-a]pyridine-3-acetamide], the “residual effects of night-time dosing” value is “results in residual drowsiness and sleepiness”.
